Measurements reported in patent US20240350503A1, “COMPOUNDS FOR TREATMENT OF VIRAL INFECTIONS BY NEUROTROPIC VIRUS” (priority 2021, published 2024).
“Also recorded” adds a separate entry of the source. Read-outs that look alike come from different tables or passages of the source.

Experiments:
IRF1 gene expression = experiment: RNA-sequencing of IRF1 gene expression in SH-Sy5y cells upon ML228 treatment; type: cell-based, human; conditions: SH-Sy5y cells treated with AAVS1 sgRNA, ML228 0.5 μM for 8 h versus DMSO control
HSV-1 [1] = experiment: RT-qPCR of HSV-1 glycoprotein B RNA in infected mouse primary neurons; type: cell-based, HSV-1 KOS strain; conditions: 0.5 μM, 2 h pre-treatment, MOI 3, 72 h, versus DMSO control
Description: (§1) The isolated mouse primary-neurons were pre-treated with ML228 and DMSO at a concentration of 0.5 μM for 2 hours and were infected with HSV-1, at a MOI of 3 and HSV-2, at a MOI of 2. After 4 hours infection, the virus was removed and the cells were incubated with ML228 and DMSO for 72 hours. After 72 hours, the supernatant was used for virus plaque assay and the cells were lysed for RNA-extraction and RT-qPCRt.
(§2) The RT-qPCR results were obtained by total RNA extraction using the High Pure RNA Isolation kit (Roche) according to the manufacturer's instructions. RNA quality and concentration was assessed using Nanodrop spectrometry (Thermo Fisher). Viral replication was analysed by measuring RNA level against HSV-(1/2) Glycoprotein B (gB) using Brilliant III Ultra-Fast SYBR Green QRT-PCR Master Mix kit (Agilent Technology). CT values were normalized versus 18srRNA (ACT) in HSV-(1/2) infection.

HSV-2 [2] = experiment: virus plaque assay of supernatant from HSV-2 infected mouse primary neurons; type: cell-based, HSV-2 333 strain; conditions: 0.5 μM, 2 h pre-treatment, MOI 2, 72 h, versus DMSO control
Description: as §1
(§3) Supernatants collected from mouse primary neurons treated with ML228 and DMSO and infected with HSV-1 and HSV-2, were used for virus titer in a virus plaque assay. For this purpose, Vero cells at a density of 1.2×10^6 cells/petri dish, in DMEM were seeded and left overnight in order to settle and to form a monolayer. The next day, cells were infected with 100 μL of supernatant in appropriate serial dilutions. The cells were incubated for 1 hour at 37° C. Subsequently, 5 ml DMEM supplemented with 0.2% normal human immunoglobin (Octapharma) were added to the cells. The plates were incubated for 2-3 days at 37° C. and stained with 0.03% methyl blue. The plaques were counted and the results were represented as PFU (plaque-forming units) per sample.

EMCV = type: cell-based, FA strain EMCV
HSV-1 [3] = experiment: virus plaque assay of supernatant from HSV-1 infected mouse primary neurons; type: cell-based, HSV-1 KOS strain; conditions: 0.5 μM, 2 h pre-treatment, MOI 3, 72 h, versus DMSO control
Description: as §1, §3

HSV-2 [4] = experiment: RT-qPCR of HSV-2 glycoprotein B RNA in infected mouse primary neurons; type: cell-based, HSV-2 333 strain; conditions: 0.5 μM, 2 h pre-treatment, MOI 2, 72 h, versus DMSO control
Description: as §1, §2

Influenza A virus = experiment: RT-qPCR of Influenza A virus matrix 2 (M2) RNA in infected SH-SY5Y cells; type: cell-based, Influenza virus A (H1N1) strain PR8; conditions: 1 μM, 2 h pre-treatment, MOI 0.1, 48 h, versus DMSO control
HSV-2 [5] = type: cell-based, HSV-2 333 strain
HSV-1 [6] = type: cell-based, HSV-1 KOS strain
HSV-2 [7] = type: cell-based, HSV-2 333 strain; remark: listed apart in the source
VSV = type: cell-based, Indiana strain VSV; conditions: SH-SY5Y cells, 0.5 μM, 2 h pre-treatment, MOI 0.001, 18 h; versus DMSO control
HSV-1 [8] = type: cell-based, HSV-1 KOS strain; remark: listed apart in the source

SMILES: c1ccc(-c2ccc(CNc3nc(-c4ccccn4)nnc3-c3ccccc3)cc2)cc1 [ML228]
- IRF1 gene expression, log 2 fold change (IRF1 gene expression): 0.6842
- HSV-1 replication (virus gB RNA level) (HSV-1 [1]): reduction of the viral replication; also recorded: significantly decreased
- number of plaque forming units (PFU) in titer, HSV-2 (HSV-2 [2]): significantly less plaque-forming units; also recorded: significantly decreased
- EMCV titer / virus cytopathic effect (TCID50%) (EMCV): significantly decreased
- number of plaque forming units (PFU) in titer, HSV-1 (HSV-1 [3]): significantly reduced; also recorded: significantly decreased
- HSV-2 replication (virus gB RNA level) (HSV-2 [4]): severely inhibited; also recorded: significantly decreased
- Influenza A virus replication (virus M2 RNA level) (Influenza A virus): also reduced; also recorded: significantly decreased
- HSV-2 replication (virus gB RNA level) (HSV-2 [5]): significantly decreased
- HSV-1 replication (virus gB RNA level) (HSV-1 [6]): significantly decreased
- number of plaque forming units (PFU) in titer, HSV-2 (HSV-2 [7]): completely counteract the virus infection; also recorded: significantly decreased
- VSV titer / virus cytopathic effect (TCID50%) (VSV): significantly reduces the virus cytopathic effect; also recorded: significantly decreased
- number of plaque forming units (PFU) in titer, HSV-1 (HSV-1 [8]): completely counteract the virus infection; also recorded: significantly decreased
